Measurements as given in ChEMBL document CHEMBL4840369, “Structure-based screening combined with computational and biochemical analyses identified the inhibitor targeting the binding of DNA Ligase 1 to UHRF1” (Bioorg Med Chem, 2021).
The source made the active and inactive calls. The rule behind the calls is not given here.

Columns and labels:
[1] = molecular target: T1, E3 ubiquitin-protein ligase UHRF1 (Homo sapiens) (UniProt Q96T88); test: Binding affinity to UHRF1 TTD (unknown origin) assessed as increase in thermal stability by measuring change in melting temperature by SYPRO orange dye based fluorescence assay
T1 sequence (whole entry): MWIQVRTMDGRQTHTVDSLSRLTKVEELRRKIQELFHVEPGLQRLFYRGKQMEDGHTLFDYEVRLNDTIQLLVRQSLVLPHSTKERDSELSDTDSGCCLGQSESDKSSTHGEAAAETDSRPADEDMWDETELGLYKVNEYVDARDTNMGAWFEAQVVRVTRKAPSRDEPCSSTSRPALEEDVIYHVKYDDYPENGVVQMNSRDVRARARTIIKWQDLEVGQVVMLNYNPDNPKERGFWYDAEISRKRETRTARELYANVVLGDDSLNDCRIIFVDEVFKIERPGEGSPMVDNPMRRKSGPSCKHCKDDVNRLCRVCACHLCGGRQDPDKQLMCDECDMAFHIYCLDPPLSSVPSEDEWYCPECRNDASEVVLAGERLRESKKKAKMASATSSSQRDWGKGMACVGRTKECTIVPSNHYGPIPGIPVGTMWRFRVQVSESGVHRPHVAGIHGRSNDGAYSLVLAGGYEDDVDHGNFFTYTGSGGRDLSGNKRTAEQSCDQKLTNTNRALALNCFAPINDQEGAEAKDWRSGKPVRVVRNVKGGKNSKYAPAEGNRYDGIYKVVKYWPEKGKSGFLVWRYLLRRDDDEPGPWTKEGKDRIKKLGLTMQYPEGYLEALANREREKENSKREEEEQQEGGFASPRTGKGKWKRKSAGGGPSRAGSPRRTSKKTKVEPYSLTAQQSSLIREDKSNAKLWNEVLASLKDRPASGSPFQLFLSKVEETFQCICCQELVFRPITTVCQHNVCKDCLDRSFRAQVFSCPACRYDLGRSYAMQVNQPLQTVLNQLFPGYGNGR

[2] = molecular target: T2, E3 ubiquitin-protein ligase UHRF1 (Homo sapiens, UniProt Q96T88); test: Binding affinity to UHRF1 TTD (unknown origin) assessed as dissociation constant by ITC analysis
T2 sequence (Q96T88 whole entry): T1 sequence (whole entry)

[3] = molecular target: T1, E3 ubiquitin-protein ligase UHRF1 (Homo sapiens); test: Binding affinity to UHRF1 TTD (unknown origin) assessed as change in enthalpy by ITC analysis
[4] = molecular target: E3 ubiquitin-protein ligase UHRF1 (Homo sapiens, UniProt Q96T88, Y188A/Y191A); test: Binding affinity to UHRF1 Y188A/Y191A double mutant (unknown origin) assessed as dissociation constant by ITC analysis
Sequence of E3 ubiquitin-protein ligase UHRF1 (Homo sapiens, UniProt Q96T88, Y188A/Y191A) (Q96T88 whole entry Y188A/Y191A): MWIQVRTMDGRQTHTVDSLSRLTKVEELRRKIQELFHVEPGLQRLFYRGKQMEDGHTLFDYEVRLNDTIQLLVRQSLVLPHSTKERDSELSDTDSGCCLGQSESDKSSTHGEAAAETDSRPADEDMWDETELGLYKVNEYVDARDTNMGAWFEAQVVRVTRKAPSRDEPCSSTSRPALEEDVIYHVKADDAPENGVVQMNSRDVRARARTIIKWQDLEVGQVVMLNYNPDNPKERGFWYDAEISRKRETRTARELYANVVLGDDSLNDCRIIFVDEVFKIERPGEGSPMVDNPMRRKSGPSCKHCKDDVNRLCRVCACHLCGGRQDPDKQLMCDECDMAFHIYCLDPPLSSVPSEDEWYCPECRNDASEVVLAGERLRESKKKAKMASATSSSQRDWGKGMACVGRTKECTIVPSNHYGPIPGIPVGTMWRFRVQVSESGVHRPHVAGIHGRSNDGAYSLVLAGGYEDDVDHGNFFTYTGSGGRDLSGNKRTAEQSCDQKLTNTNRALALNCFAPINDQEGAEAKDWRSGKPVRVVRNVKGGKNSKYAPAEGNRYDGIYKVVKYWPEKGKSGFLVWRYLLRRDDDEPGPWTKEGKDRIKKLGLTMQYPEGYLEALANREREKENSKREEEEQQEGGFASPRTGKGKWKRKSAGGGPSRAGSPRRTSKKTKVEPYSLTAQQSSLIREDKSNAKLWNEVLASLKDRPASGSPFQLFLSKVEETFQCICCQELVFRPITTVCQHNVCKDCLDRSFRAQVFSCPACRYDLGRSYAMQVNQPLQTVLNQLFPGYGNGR

[5] = molecular target: E3 ubiquitin-protein ligase UHRF1 (Homo sapiens, UniProt Q96T88); test: Binding affinity to UHRF1 TTD variant loop (unknown origin) assessed as dissociation constant by ITC analysis
[6] = molecular target: T1, E3 ubiquitin-protein ligase UHRF1 (Homo sapiens); test: Displacement of FAM-labeled H3K9me3 from UHRF1 TTD(unknown origin) by fluorescence polarization assay
[7] = molecular target: T1, E3 ubiquitin-protein ligase UHRF1 (Homo sapiens); test: Displacement of FAM-labeled LIG1K126me3 from UHRF1 TTD(unknown origin) by fluorescence polarization assay
[8] = molecular target: T3, E3 ubiquitin-protein ligase UHRF1 (Xenopus laevis) (UniProt B6CHA3); test: Inhibition of UHRF1 TTD binding with LIG1K126me3 in Xenopus laevis eggs incubated for 1 hr by immunoprecipitation; type: tissue-based; details: Egg
T3 sequence (whole entry): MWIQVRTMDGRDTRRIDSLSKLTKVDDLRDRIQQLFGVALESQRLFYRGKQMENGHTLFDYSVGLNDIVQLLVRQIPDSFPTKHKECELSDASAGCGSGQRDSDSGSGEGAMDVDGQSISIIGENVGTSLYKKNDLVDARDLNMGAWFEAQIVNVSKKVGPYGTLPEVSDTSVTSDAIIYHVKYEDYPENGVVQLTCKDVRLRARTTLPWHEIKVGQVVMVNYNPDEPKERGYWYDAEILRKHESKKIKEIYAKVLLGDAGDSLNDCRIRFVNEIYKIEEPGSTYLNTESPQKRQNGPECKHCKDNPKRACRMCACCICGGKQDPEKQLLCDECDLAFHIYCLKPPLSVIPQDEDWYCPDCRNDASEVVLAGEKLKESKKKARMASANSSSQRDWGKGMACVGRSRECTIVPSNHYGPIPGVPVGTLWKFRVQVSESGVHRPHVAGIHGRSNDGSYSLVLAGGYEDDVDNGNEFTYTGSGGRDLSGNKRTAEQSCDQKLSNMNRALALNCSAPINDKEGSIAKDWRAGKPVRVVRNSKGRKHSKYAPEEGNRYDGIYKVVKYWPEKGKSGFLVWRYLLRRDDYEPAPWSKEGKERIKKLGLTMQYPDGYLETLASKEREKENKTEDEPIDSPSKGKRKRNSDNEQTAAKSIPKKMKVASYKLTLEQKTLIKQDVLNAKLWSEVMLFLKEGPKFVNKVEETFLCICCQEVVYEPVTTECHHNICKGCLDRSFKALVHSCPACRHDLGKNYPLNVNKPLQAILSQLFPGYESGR

[9] = molecular target: T1, E3 ubiquitin-protein ligase UHRF1 (Homo sapiens); test: Binding affinity to UHRF1 TTD (unknown origin) assessed as compound-protein complex stoichiometry ratio of 1:1 by ITC analysis
[10] = molecular target: E3 ubiquitin-protein ligase UHRF1 (Homo sapiens, UniProt Q96T88, M224A); test: Binding affinity to UHRF1 M224A mutant (unknown origin) assessed as dissociation constant by ITC analysis
Sequence of E3 ubiquitin-protein ligase UHRF1 (Homo sapiens, UniProt Q96T88, M224A) (Q96T88 whole entry M224A): as the sequence (Q96T88 whole entry Y188A/Y191A) above, with A188Y, A191Y, M224A counted along it

[11] = molecular target: E3 ubiquitin-protein ligase UHRF1 (Homo sapiens, UniProt Q96T88, F278A); test: Binding affinity to UHRF1 F278A mutant (unknown origin) assessed as dissociation constant by ITC analysis
Sequence of E3 ubiquitin-protein ligase UHRF1 (Homo sapiens, UniProt Q96T88, F278A) (Q96T88 whole entry F278A): as the sequence (Q96T88 whole entry Y188A/Y191A) above, with A188Y, A191Y, F278A counted along it

[12] = molecular target: T1, E3 ubiquitin-protein ligase UHRF1 (Homo sapiens); test: Binding affinity to UHRF1 TTD (unknown origin) assessed as increase in thermal stability by melting temperature by SYPRO orange dye based fluorescence assay (reference value: 46.5 +/- 0.1 degreeC)

deltaT [1]: 3.1 °C
Kd [2]: 19.3 µM
deltaH [3]: -8.5 kcal/mol
Kd [4]: 32 µM
Kd [5]: 20.7 µM
INH [6]: 249 µM
INH [7]: 806 µM
inhibition [8]: Dose-Dependent Effect
Activity [9]: Active
Kd [10]: > 111 µM
Kd [11]: > 183 µM
Tm [12]: 49.6 °C
SMILES: Cc1cc(C)c(N)cn1
